The text below walks through data of patent US9315510B2, “Method and application of unsymmetrically meso-substituted porphyrins and chlorins for PDT” (Biolitec Pharma Marketing LTD, priority 2008, dated 2016).

For series [1], the system named is human colon adenocarcinoma cell line HT29. Nature of the series: Cell tests in the HT 29 cell line: photosensitizing activity, XTT cell viability. Type of series: cell-based. On the procedure: The photosensitizing activity was determined in the human colon adenocarcinoma cell line HT29. The HT29 cell lines were grown in DMEM (cc-pro GmbH) supplemented with 10% heat-inactivated fetal calf serum (FCS, cc-pro GmbH), 1% penicillin (10000 IU) and streptomycin (10000 μg/ml, cc-pro GmbH). Cells were kept as a monolayer culture in a humidified incubator (5% CO2 in air at 37° C.
(§1) A photosensitizer stock solution (2 mM) was performed in DMSO and was kept in the dark at 4° C. Further dilution was performed in RPMI 1640 medium without phenol red supplemented with 10% FCS to reach a final photosensitizer concentration of 2 or 10 μM, respectively.
(§2) 2·10^4 cells/ml were seeded in micro plates (2·10^5 cells/well). Cells were incubated with fresh medium (RPMI without phenol red) containing 10% FCS with 2 or 10 μM of the photosensitizer for 24 h before light exposure. […]
(§3) The cell viability was assessed by the XTT assay. […]
(§4) The absorbance of the samples was measured with a spectrophotometer (Bio-Kinetics Reader EL312 e; Bio-Tek Instruments Inc.) at a wavelength of 490 nm. In order to measure reference absorbance (to measure non-specific readings) a wavelength of 630-690 nm was used.
On the technique in general: Tetrazolium assays rely on reduction of a dye to a coloured formazan, in cell work by metabolically active cells.

Series [2] relates to rabbit synoviocyte cell line HIG-82. As to the kind of experiment: Cell tests in the rabbit synoviocyte cell line HIG-82: photodynamic activity, XTT cell viability. Type of series: cell-based. The conditions noted are these: HIG82, 2 or 10 μM photosensitizer, 24 h incubation, 652 nm diode laser, 50 J/cm^2. On the procedure: (§5) The mouse monocytes-macrophages cell line J774A.1 and the rabbit synoviocyte cell line HIG-82 were grown in DMEM (cc-pro GmbH) supplemented with 10% heat-inactivated fetal calf serum (FCS, cc-pro GmbH), 1% penicillin (10000 IU) and streptomycin (10 000 μg/ml, cc-pro GmbH). Cells were kept as a monolayer culture in a humidified incubator (5% CO2 in air at 37° C.).
as §1, §2, §3, §4

Series [3] has as its system mouse monocytes-macrophages cell line J774A.1. As to the kind of experiment: Cell tests in the mouse macrophage cell line J774A.1: photodynamic activity, XTT cell viability. It is filed as cell-based. The conditions noted are these: 2 or 10 μM photosensitizer, 24 h incubation, 652 nm diode laser, 50 J/cm^2. The procedure: as §5, §1, §2, §3, §4

For “5,15-Bis-(4-carboxyphenyl)-10,20-dihexyl-7,8-dihydroxy-7,8-chlorin”, the “photodynamic activity (photo toxicity)” value in series [1] (HT29, 2 or 10 μM photosensitizer, 24 h incubation, 652 nm diode laser, 100 mW/cm^2 (50 J/cm^2), XTT 24 h after irradiation) is recorded as “very strong photodynamic activity”. In series [1] (HT 29 cell line, cell culture experiments (FIG. 4A)), the “dark toxicity (DT) and photo toxicity” value was “excellent properties”. In addition, the photodynamic activity entry in series [2] and in series [3] was “very strong photodynamic activity” in each case.
The term melting point denotes the temperature of the solid-liquid transition. Take `CCCCCCCCCCCCCc1c2nc(c(CCCCCCCCCCCCC)c3ccc([nH]3)c(-c3cccc(O)c3)c3nc(c(-c4cccc(O)c4)c4ccc1[nH]4)C=C3)C=C2` [5,10-Bis-(3-hydroxyphenyl)-15,20-bis-(tridecyl)-porphyrin]: the melting point was determined as 113 °C.
Compound `CCCCCCc1c2nc(c(CCCCCC)c3ccc([nH]3)c(-c3ccc(C(=O)OC)cc3)c3nc(c(-c4ccc(C(=O)OC)cc4)c4ccc1[nH]4)C=C3)C=C2` [5,10-Dihexyl-15,20-bis-(4-methoxycarbonylphenyl)-porphyrin] had a melting point of 131 °C.
For `CCCCCCCCCCCCCc1c2nc(c(-c3cccc(O)c3)c3ccc([nH]3)c(CCCCCCCCCCCCC)c3nc(c(-c4cccc(O)c4)c4ccc1[nH]4)C=C3)C=C2` [5,15-Bis-(3-hydroxyphenyl)-10,20-bis-(tridecyl)-porphyrin], the melting point stood at 133 °C.
Same read-out and setting: next, `CCCCCCc1c2nc(c(-c3ccc(C(=O)OC)cc3)c3ccc([nH]3)c(CCCCCC)c3nc(c(-c4ccc(C(=O)OC)cc4)c4ccc1[nH]4)C=C3)C=C2` [5,15-Dihexyl-10,20-bis-(4-methoxycarbonylphenyl)-porphyrin]: 238 °C.
`CCCCCCc1c2nc(c(-c3ccc(C(=O)O)cc3)c3ccc([nH]3)c(-c3ccc(C(=O)O)cc3)c3nc(c(CCCCCC)c4ccc1[nH]4)C(O)C3O)C=C2` (stereo not shown) [5,20-Bis-(4-carboxyphenyl)-10,15-dihexyl-7,8-dihydroxy-7,8-chlorin]: the photodynamic activity entry in series [2] and in series [3] was “very strong photodynamic activity” throughout.
